In patent US20190054109A1, “An antiviral composition and a method for application thereof” (ALLA CHEM, LLC, priority 2017, published 2019):

What was measured:
[1] = Stability in human liver S9 fraction; type: in vitro ADME
Experimental: Proteins were deposited on ice for 15 min. The samples were then centrifuged for 10 min at 3000 rpm, and the supernatant (150 μl) was sampled for analysis.
Tolbutamide (Fluka) was used as the internal standard.

[2] = system: gT1b NS5B HCV; experiment: Anti-HCV activity in Huh7 cell line stably transfected with an HCV replicon; type: cell-based, hepatitis C virus (HCV) genotype 1b
Experimental: Evaluation of anti-HCV activity and cytotoxicity for compositions comprising the prodrug of formula 1.1 and Sovaldi®. The antiviral activity of tested compositions comprising the prodrug was evaluated using an Huh7 human hepatocellular carcinoma cell line stably transfected with an HCV replicon. A cell suspension in a complete culture medium (DMEM 1×, Cellgro; cat. #10-013-CV) was transferred into 96-well plates (50 μl per well) with a final density of 7500 cells per well. The serial dilutions of tested prodrugs were prepared from a fresh 200-fold generic solution in DMSO with 11 concentration points and 3-fold dilution for each step starting from 20 nM in a complete medium and were used as 2-fold solutions in two replicates. Minimum 4 hours after planting the cells, 50 μl of serial prodrug dilutions was added to each well. The final prodrug concentration varied from 10 nM to 0.1 pM and that of DMSO, 0.5%. The plate with cells was incubated for 3 days at 37° C. under humidified 5% CO2. Upon completion of incubation, the medium was removed by turning the plate over and shaking it carefully. The cells were fixed for one minute with 100 μl of a 1:1 acetone:methanol solution, washed 3 times with a phosphate buffer (PBS), and blocked for 1 h at room temperature using a 10% fetal bovine serum (FBS) in PBS (150 μl/well). The cells were washed 3 times with PBS and incubated for 2 h at 37° C. with anti-NS5B HCV antibodies (100 μl/well) using Affinity BioReagents (cat. # MA1-080) and diluting the generic solution (1 mg/ml) in a ratio of 1:4000 in 10% FBS-PBS. The cells were washed 3 times with PBS and developed by an OPD solution (100 μl/well) using for each plate one OPD tablet dissolved in a citrate/phosphate buffer (12 ml)), whereto 5 μl of 30% H2O2 was added, for 30 minutes in the dark at room temperature. The reaction was stopped by 2N H2SO4 (100 μl/well), and OD490 was measured using the multifunctional reader Victor^3 V 1420 (Perkin Elmer). The values of EC50 for tested prodrugs were measured from an activity curve plotted using the GraphPad Prizm software.

[3] = in vitro; settings: human, plasma
Experimental: (§1) Evaluation of stability in biological matrix for compositions comprising the prodrug of formula 1.1. Initial compositions comprising the prodrug of formula 1.1 (the tested compounds) were prepared with a concentration of 10 mM in DMSO. From said compositions, 100-fold working solutions were prepared with a concentration of 100 μM in a mixture of acetonitrile: water with a volumetric ratio of 1:1.
The incubation was performed in a Vortemp56 shaking incubator at 37° C. with stirring at a rate of 300 rev/min. […] The samples were then centrifuged, and the supernatant (150 μl) was sampled for analysis […]. The incubation was performed in two replicates, with each sample measured twice.
Samples were analyzed using an HPLC-MS/MS technique developed for each tested prodrug, wherein the chromatographic system 1290 Infinity II (Agilent Technologies) was combined with the tandem mass spectrometer QTRAP5500 (AB Sciex). […] Scanning in a total ion current mode (MS1) allowed us to identify a molecular ion for each compound, and basic product ions were recorded in MS2 mode. […] In quantitative chromatogram processing, the most intensive MRM transition was used for the analyte and the internal standard. […]

[4] = Cytotoxicity in Huh7 cells (ATPLite kit); type: cell-based; settings: human
Experimental: The cytotoxicity of tested compositions comprising the prodrug was evaluated concurrently in the same cell line Huh7 using an ATPLite kit (Perkin-Elmer, Boston, USA) in accordance with the manufacturer's instruction. The cell suspension in complete culture medium (DMEM 1×, Cellgro; cat. #10-013-CV) was transferred into 96-well plates with black walls and transparent bottoms (50 μl/well) with a final density of 7500 cells per well. Eighteen hours after planting the cells, serial compound dilutions (50 μl/well) were added. The plate with cells was incubated for 4 days at 37° C. in a humidified 5% CO2 atmosphere. The cells were then twice washed with PBS (200 μl/well) and lysed by adding a lytic buffer (50 μl/well); all reagents were taken from the ATPLite kit. Following a 5-minute stirring on a shaker, a substrate was added (50 μl/well). After an additional 5-minute incubation, the plate was kept for 10 minutes in the dark, and luminescence in the wells was measured using the multifunctional reader Victor^3 V 1420 (Perkin Elmer). The values of CC50 for tested compounds were measured from a cytotoxicity curve plotted using the GraphPad Prizm software.

[5] = physchem; settings: simulated gi fluid
Experimental: as §1
The tested composition comprising the prodrug of formula 1.1 in a final concentration of 1 μM was incubated in artificial gastric juice (0.2% NaCl in 0.7% v/v HCl) and artificial intestinal juice (0.05M KH2PO4, pH 6.75). The incubation was performed in a Vortemp56 shaking incubator at 37° C. with stirring at a rate of 300 rev/min. […] The samples were then centrifuged, and the supernatant (150 μl) was sampled for analysis […]. The incubation was performed in two replicates, with each sample measured twice.
Samples were analyzed using an HPLC-MS/MS technique developed for each tested prodrug, wherein the chromatographic system 1290 Infinity II (Agilent Technologies) was combined with the tandem mass spectrometer QTRAP5500 (AB Sciex). When developing conditions for mass-spectrometric detection, the solutions of tested compounds in a mixture of acetonitrile-water (1:1) with a concentration of 100 ng/ml were injected directly into the mass spectrometer using a syringe pump with electrospray ionization carried out in a positive ion mode. Scanning in a total ion current mode (MS1) allowed us to identify a molecular ion for each compound, and basic product ions were recorded in MS2 mode. Then, to attain maximum sensitivity, the MS/MS technique was optimized in MRM mode. In quantitative chromatogram processing, the most intensive MRM transition was used for the analyte and the internal standard. Separation was carried out by means of linear gradient elution chromatography on a YMC Triart C18 column (50×2 mm, 1.9 μm) in a mobile phase consisting of 0.1% formic acid in water and 0.1% formic acid in acetonitrile. Tolbutamide (Fluka) was used as the internal standard.
Half-life (T1/2) was found from the kinetics of tested prodrug elimination in an antiviral composition during incubation in a biological matrix. The computations were based on the values of chromatographic peak areas for compounds in test samples normalized to the internal standard signal. From linear dependence of log normalized areas of chromatographic peaks on time, the constant of elimination rate was calculated (k is linear section slope).

[6] = Hepatitis C virus, Huh-7, gT1b HCV replicon in Huh7, 10% FBS

## C[C@H](N[P@](=O)(OC[C@H]1O[C@@H](n2ccc(=O)[nH]c2=O)[C@](C)(F)[C@@H]1O)Oc1ccccc1)C(=O)OC1CCC1 [Prodrug 1.1, cyclobutyl (S)-2-{(S)-[(2R,3R,4R,5R)-5-(3,4-dihydro-2,4-dioxo-2H-pyrimidin-1-yl)-3-hydroxy-4-methyl-4-fluoro-tetrahydro-furan-2-ylmethoxy]-phenoxy-phosphorylamino}-propanoate]
[1]; pH 7.4, human liver S9 fraction 1 mg/ml protein, 37° C., 1 μM, read-out: T1/2 Human S9 (converted)
  half-life at 1 μM: 3 min
[1]; ratio of T1/2 in human S9
  metabolic rate in human liver microsomal S9 fraction relative to Sovaldi (faster): 11 times
[2]; [6]
  EC50: 15 to 27 nM
  EC90: 128 nM
[2]; comparison of EC50/EC90
  activity against gT1b HCV relative to Sovaldi: more than three times more active
[3]
  half-life at 1 μM: > 24 h
[4]; Huh7, 10% FBS
  CC90 at 4 days: > 100000 nM
[4]; Huh7, ATPLite, 4 days
  CC50 at 4 days: > 100000 nM
[5]; T1/2 SGF, artificial gastric juice, 37° C.
  half-life at 1 μM: 12.7 to 15 h
[5]; pH 6.75
  half-life at 1 μM: > 24 h
